Assay results as given in patent US20250332139A1, “PS[…] AND THEIR USE FOR TREATING […] AND NE[…] DISORDERS” (Transcend Therapeutics, Inc., priority 2021, published 2025).
Like-named read-outs stand apart in the source and are kept apart here.

Legend:
[1] = biological target: T1, serotonin transporter (SERT) (Rattus norvegicus, UniProt P31652); experiment: Competitive radioligand binding, [3H]citalopram, rat brain lysates
T1 construct: from tissue; synaptosomes for uptake and release
Protocol: (§1) Radioligands used were: [^3H] Citalopram (PerkinElmer NET1039250UC); [^3H] Nisoxetine (PerkinElmer NET1084250UC); [^3H] WIN35428 (PerkinElmer NET1033250UC). […] Rat brains were dissected and tissue was homogenized in cold lysis buffer, centrifged at 100×g for 2 min and the supernatant was placed in a fresh tube. Supernatant was centrifuged at 13,000×g for 10 min at 4° C. to re-pellet the cell lysate. The pellet was resuspended in fresh wash buffer (50 mM Tris-HCl; 5 mM MgCl2; 5 mM EDTA) and centrifuged a third time. The pellet was then resuspended in wash buffer containing 10% sucrose as a cryoprotectant, divided into aliquots (0.3 mL) and stored at −80° C. A sample of the homogenate was analyzed for protein content using the SIGMA® BCA assay. On the day of the assay, the membrane preparation was thawed, and the pellet resuspended in final assay buffer. […] To each well was added 150 μL membranes, 50 μL of non-specific compound or buffer and 50 μL radioligand solution in buffer. […] Ki was subsequently calculated using the Cheng-Prusoff equation.

[2] = biological target: norepinephrine transporter (NET) (Rattus norvegicus, UniProt Q63380); experiment: Competitive radioligand binding, [3H]nisoxetine, rat brain lysates
Protocol: as §1

[3] = biological target: T2, dopamine transporter (DAT) (Rattus norvegicus, UniProt P23977); experiment: Competitive radioligand binding, [3H]WIN35428, rat brain lysates
T2 construct: from tissue; synaptosomes for uptake and release
Protocol: as §1

[4] = biological target: T3, Human serotonin 5HT2B receptor (Homo sapiens, UniProt P41595); experiment: 5HT2B competitive radioligand binding; conditions: ratio of Ki values
T3 construct: host or cells: receptor-expressing membranes
Protocol: Human serotonin 5HT2B receptor membrane preparations were divided into aliquots. On the day of the assay, membranes were diluted at 1:200 in incubation buffer. […] To each well was added 150 μL membrane preparation, 50 μL test compound, non-specific compound, or buffer alone, as well as 50 μL radioligand. The plate was incubated at 35° C. for 90 minutes with gentle agitation. […] For each concentration of drug, non-specific binding was subtracted from total binding to give specific binding. […] Ki was subsequently calculated using the ChengPrusoff equation.

[5] = tested on: myelin basic protein (MBP) in the amygdala; experiment: Immunohistochemistry of myelin basic protein; type: in vivo, rat; conditions: 10 mg/kg IP, single dose, 24 h
Protocol: Immunohistochemistry: The in-life portion of the study was conducted at WuXi Apptec (Cranbury, NJ). Sectioning and staining of brains took place at Neuroscience Associates (NSA, Knoxville, TN). […] Brains were post-fixed in PFA before shipment to NSA for processing and staining. Hemisected brains were mounted, sectioned and stained using standard protocols with myelin-basic protein primary antibody (MBP SMI-99, 1:5000, Biolegend, San Diego, CA) and anti-mouse biotinylated secondary antibody (BA-2001, Vector Laboratories, Newark, CA). Slides were imaged using a Huron Digital Pathology TissueScope LE120 whole slide scanning system. 20× objective was used with a 0.4 μm/pixel resolution.

Sprague Dawley rats = conditions: cited from earlier work
C57BL/6J mice = conditions: MDMA 7.5 mg/kg 30 minutes prior to extinction training (Young 2015); cited from earlier work

T1 sequence (P31652 whole entry): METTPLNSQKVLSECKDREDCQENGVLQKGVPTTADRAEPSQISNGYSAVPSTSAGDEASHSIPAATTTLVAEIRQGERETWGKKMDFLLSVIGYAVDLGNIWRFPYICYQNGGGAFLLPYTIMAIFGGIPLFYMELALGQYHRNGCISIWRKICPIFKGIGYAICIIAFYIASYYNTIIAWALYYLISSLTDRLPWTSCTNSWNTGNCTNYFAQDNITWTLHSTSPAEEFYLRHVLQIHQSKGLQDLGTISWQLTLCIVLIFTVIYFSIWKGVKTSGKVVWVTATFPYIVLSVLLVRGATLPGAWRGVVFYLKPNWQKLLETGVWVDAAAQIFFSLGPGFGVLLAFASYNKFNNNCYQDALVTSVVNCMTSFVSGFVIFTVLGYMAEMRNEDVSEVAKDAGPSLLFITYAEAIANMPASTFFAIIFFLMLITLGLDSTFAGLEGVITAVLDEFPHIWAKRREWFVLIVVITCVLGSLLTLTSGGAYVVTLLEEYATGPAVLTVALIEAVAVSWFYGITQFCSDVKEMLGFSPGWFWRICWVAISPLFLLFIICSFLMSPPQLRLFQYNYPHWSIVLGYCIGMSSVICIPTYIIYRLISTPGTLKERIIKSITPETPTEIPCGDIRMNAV
T2 sequence (P23977 whole entry): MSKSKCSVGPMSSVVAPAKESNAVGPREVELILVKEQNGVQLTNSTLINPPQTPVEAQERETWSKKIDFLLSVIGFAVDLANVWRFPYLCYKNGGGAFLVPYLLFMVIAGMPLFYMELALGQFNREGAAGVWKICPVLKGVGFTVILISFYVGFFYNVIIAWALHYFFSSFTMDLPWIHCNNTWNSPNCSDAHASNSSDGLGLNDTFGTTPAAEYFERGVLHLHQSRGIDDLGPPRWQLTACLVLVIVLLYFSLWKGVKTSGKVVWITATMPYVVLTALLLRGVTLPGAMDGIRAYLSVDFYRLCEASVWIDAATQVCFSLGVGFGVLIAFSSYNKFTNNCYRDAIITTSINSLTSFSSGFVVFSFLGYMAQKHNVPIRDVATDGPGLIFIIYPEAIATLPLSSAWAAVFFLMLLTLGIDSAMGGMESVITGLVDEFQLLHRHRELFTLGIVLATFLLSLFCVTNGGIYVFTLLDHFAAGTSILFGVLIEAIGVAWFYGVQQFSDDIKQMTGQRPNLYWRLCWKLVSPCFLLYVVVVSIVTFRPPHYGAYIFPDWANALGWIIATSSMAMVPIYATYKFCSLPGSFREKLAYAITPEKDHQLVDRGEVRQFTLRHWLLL
T3 sequence (P41595 whole entry): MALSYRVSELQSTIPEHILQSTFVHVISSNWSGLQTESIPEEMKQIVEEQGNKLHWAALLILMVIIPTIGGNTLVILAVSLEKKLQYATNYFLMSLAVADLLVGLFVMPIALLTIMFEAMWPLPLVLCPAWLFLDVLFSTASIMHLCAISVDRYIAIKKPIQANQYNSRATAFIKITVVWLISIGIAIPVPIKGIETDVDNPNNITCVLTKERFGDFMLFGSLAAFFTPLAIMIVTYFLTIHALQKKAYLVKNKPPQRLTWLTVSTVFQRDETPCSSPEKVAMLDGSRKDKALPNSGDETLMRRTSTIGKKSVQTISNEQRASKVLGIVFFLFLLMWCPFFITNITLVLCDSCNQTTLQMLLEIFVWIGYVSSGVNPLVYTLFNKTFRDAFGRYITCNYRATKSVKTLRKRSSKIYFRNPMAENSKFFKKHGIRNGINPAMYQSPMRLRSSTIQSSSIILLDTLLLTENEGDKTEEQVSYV
norepinephrine transporter (NET), sequence (Q63380 1-617): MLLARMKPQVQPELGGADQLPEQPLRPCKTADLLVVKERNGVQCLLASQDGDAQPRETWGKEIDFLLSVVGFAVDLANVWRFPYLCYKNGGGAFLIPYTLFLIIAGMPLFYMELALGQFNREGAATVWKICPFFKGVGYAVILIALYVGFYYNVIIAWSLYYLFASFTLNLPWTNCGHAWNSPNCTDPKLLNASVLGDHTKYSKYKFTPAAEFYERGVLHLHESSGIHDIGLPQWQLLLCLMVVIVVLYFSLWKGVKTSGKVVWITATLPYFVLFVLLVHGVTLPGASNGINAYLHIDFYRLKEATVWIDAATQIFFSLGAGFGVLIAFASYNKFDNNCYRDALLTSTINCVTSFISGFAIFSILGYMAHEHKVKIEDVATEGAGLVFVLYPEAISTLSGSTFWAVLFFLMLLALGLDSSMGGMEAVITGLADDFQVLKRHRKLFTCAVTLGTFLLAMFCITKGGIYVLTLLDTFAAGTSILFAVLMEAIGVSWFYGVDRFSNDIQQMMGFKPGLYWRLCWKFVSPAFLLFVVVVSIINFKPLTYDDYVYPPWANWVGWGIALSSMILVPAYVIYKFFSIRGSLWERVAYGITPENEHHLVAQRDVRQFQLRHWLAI

## CNC(C)Cc1ccc2c(c1)OCO2 (racemic) [MDMA, 3,4-Methylenedioxymethamphetamine]
[1]
  Ki: 2620 nM
[2]
  Ki: 790 nM
[3]
  Ki: 5110 nM
[4]
  times greater affinity for the 5HT2B receptor compared with methylone: 7.5 times
[5]
  MBP level in basolateral and central nuclei of the amygdala vs vehicle: significant reduction in MBP
Sprague Dawley rats; MDMA 5 mg/kg, Flinders Sensitive Line rats (Majumder 2011)
  reduction in immobility: 45%
Sprague Dawley rats; MDMA 5 mg/kg, Sprague Dawley rats (Majumder 2011)
  reduction in immobility: 45%
Sprague Dawley rats; MDMA 10 mg/kg, Flinders Sensitive Line rats (Majumder 2011)
  reduction in immobility: 93%
Sprague Dawley rats; MDMA 10 mg/kg, Sprague Dawley rats (Majumder 2011)
  reduction in immobility: 78%
C57BL/6J mice
  reduced freezing (extinction recall) vs saline: 35%
